Assay results as given in US7208572B2, “Leptin-related peptides” (Albany Medical College, priority 1998, dated 2007).
Marks after values point to notes of the source that are not given here. Square brackets hold non-standard residues; d marks the D form. Ends that are not written are not given here. Peptide text beside a SMILES is read from it.

B1: mouse leptin: recombinant mouse leptin used as positive control in binding and SEAP assays (protein, listed as Mus musculus)
chain: MCWRPLCRFLWLWSYLSYVQAVPIQKVQDDTKTLIKTIVTRINDISHTQSVSAKQRVTGLDFIPGLHPILSLSKMDQTLAVYQQVLTSLPSQNVLQIANDLENLRDLLHLLAFSKSCSLPQTSGLQKPESLDGVLEASLYSTEVVALSRLQGSLQDILQQLDVSPEC

Columns and labels:
[1] = Epitope mapping: body weight and food intake in female C57BL/6J ob/ob mice, 7 daily ip injections; type: in vivo, mouse; settings: for Cumulative food intake / Percent heavier (+) or lighter (−) than initial weight / Weight gain (+) or loss (−): 1 mg/day ip; for Cumulative food intake / Percent heavier (+) or lighter (−) than initial weight / Weight gain (+) or loss (−) / Reduction of food intake / Food intake vs vehicle: 7 days; for Reduction of food intake / Weight loss: 1 mg daily; for Weight loss: after 7 days
Protocol: Animal procedures. Feeding and weighing schedules, as well as peptide administration protocols, are as described in EXAMPLE 8, supra.
Statistical analysis. Changes in body weight and differences in food intake between peptide-treated and vehicle-injected control mice were analyzed by analysis of variance (ANOVA) and considered significant when P<0.05.
Female ob/ob mice (n=6 per group) were given a single ip injection of 0.2 ml of vehicle (PBS, pH 7.2) or leptin-related synthetic peptide amide in 0.2 ml PBS for 7 consecutive days. Daily changes in body weight compared to pretreatment weights in both vehicle-injected control and peptide-treated mice are shown in FIG. 4. […] There was no evidence of weight loss in response to peptide treatment.

[2] = 28-day ip study of body weight and food intake in female C57BL/6J ob/ob mice; type: in vivo, mouse; settings: 1 mg per day ip, 28 days
Text: In order to examine this possibility, six overlapping peptide amides, which corresponded to amino acid residues 106 to 167 of mouse leptin, were synthesized and their effects on body weight and food intake in female C57BL/6J ob/ob mice were subsequently assessed.

[3] = Short-term (7-day) toxicity study in female C57BLK/6-m wild type mice; settings: 1 mg/day ip, 7 days
Protocol: Methods: OB3, [D-Leu-4]-OB3, hOB3 or vehicle was administered intraperitoneally once daily (1 mg/day, 7 days) to groups (n=6 mice per group) of C57BLK/6-m wild type mice of the same age as their obese (ob/ob or db/db) counterparts. The effects of the peptides on body weight gain, food and water intake, glucose homeostasis, serum insulin levels, and ability to thermoregulate were examined.

[4] = molecular target: T1, OB-Ra (Mus musculus, UniProt P48356); experiment: Inhibition of AP-OB fusion protein binding by COS-7 cells transfected with OB receptor; settings: 30 nM unlabelled mouse leptin
T1 construct: expressed in transfected cells; host or cells: COS-7
T1 sequence (P48356 22-894 isoform P48356-2 limits assumed): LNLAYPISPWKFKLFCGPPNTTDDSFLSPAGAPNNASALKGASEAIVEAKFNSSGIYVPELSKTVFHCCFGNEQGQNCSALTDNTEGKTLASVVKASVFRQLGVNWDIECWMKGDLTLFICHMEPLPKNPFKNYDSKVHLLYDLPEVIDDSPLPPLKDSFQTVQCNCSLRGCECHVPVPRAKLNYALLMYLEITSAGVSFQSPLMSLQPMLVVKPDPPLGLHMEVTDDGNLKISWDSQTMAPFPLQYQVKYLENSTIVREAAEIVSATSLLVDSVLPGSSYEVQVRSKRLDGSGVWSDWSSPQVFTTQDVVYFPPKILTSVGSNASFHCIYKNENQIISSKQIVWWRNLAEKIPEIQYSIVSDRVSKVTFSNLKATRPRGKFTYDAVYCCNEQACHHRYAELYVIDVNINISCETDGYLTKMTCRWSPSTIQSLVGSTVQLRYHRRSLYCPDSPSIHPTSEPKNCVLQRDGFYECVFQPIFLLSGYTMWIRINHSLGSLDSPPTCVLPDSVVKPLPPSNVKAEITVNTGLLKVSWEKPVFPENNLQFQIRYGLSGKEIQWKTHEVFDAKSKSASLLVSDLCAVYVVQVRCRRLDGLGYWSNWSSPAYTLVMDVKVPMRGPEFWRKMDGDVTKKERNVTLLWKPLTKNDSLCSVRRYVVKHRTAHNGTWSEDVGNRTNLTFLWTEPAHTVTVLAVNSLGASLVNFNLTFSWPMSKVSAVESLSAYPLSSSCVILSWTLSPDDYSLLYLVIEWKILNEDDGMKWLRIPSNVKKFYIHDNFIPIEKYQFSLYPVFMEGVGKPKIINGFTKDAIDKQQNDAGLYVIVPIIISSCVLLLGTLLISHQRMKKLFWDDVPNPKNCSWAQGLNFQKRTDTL
Text: (§1) Initial experiments to determine the mechanism of action of LEP(116–130) utilized two highly sensitive in vitro bioassays routinely used to assess leptin binding and receptor activation (see e.g., White, et al., 1997. Proc. Natl. Acad. Sci. U.S.A. 94: 10657–10662). An alkaline phosphatase (“AP”)-leptin (“OB”) fusion protein (“AP-OB”) was used to measure inhibition of leptin binding in the absence or presence of recombinant mouse leptin (positive control) or peptide, by COS-7 cells transfected with the long (signaling) form of the mouse OB receptor (“OB-RL”). Signal transduction assays were done in GT1–7 cells cotransfected with AP reporter and OB-RL constructs. Secreted alkaline phosphatase (“SEAP”) activity in response to stimulation with mouse leptin or peptide was measured by chemiluminescence.
Two days after transfection, COS-7 cells were incubated with 1 nm human AP-OB fusion protein and bound AP activity was determined by chemiluminescence using the Great EscApe alkaline phosphatase detection kit as described by the manufacturer (CLON-TECH).
COS-7 cells were transfected with expression vector for OB-Ra. Two days after transfection, the cells were incubated with 1 nM human AB-OB fusion protein in the absence or presence of 30 nM mouse leptin, 300 μM LEP(116–130) or LEP(146–160). Bound AP activity was determined as has been described. See., e.g., Kamohara et al., 1997 Nature 389: 374–377.

[5] = molecular target: T2, OB-Rb (Mus musculus, UniProt P48356); experiment: SEAP reporter gene signal transduction assay in GT1–7 cells cotransfected with HRRE-SEAP and OB-Rb; type: cell-based; settings: 6 nM mouse leptin, 24 h
T2 construct: full-length leptin receptor (OB-Rb), the receptor isoform predominantly expressed in the hypothalamus; expressed in transfected cells; host or cells: GT1-7
T2 sequence (P48356 22-1162): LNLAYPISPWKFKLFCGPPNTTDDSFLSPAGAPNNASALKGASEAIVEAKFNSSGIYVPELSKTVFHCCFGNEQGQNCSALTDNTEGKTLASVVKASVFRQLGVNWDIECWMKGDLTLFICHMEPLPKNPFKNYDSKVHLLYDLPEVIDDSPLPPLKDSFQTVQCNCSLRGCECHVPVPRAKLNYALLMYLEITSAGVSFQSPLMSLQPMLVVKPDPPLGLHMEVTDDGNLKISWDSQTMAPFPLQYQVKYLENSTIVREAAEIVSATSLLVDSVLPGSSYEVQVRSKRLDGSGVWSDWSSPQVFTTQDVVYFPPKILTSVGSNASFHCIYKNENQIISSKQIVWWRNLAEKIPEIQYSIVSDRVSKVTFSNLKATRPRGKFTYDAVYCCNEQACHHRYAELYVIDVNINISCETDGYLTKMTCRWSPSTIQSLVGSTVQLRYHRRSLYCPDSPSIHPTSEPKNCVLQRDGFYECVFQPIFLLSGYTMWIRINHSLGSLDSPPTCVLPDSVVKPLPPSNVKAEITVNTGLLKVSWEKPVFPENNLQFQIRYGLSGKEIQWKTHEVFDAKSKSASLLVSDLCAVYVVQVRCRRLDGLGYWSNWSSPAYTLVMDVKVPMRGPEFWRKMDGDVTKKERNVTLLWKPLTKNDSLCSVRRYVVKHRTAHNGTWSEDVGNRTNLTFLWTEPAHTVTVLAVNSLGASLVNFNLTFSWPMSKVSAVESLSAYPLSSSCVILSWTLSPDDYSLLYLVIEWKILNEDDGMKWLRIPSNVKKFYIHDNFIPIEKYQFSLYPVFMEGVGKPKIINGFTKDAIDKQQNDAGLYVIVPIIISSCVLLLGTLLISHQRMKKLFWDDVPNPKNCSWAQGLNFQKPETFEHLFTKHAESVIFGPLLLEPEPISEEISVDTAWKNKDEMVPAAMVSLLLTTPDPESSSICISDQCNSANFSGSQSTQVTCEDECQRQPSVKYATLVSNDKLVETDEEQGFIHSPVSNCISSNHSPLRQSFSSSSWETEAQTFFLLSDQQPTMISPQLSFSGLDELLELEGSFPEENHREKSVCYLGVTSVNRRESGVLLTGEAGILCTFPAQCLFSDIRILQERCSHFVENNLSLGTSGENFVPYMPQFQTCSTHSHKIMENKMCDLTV
Text: as §1
Two days after transfection, the cells were stimulated with mouse leptin or leptin-related synthetic peptides for 24 hours. Growth media were harvested and SEAP activity was determined by chemiluminescence as described for AP-OB binding studies.
COS-7 and GT1–7 cells were cultured in DMEM supplemented with 10% fetal bovine serum, and transfected by the lipofectamine method. […] Supernatants were collected and SEAP reporter activities were measured by chemiluminescence using the GreatEscApe alkaline phosphatase detection kit as described by the manufacturer (CLONTECH). […]

Row | Molecule | Cumulative food intake [1] | Percent heavier (+) or lighter (−) than initial weight [1] | Weight gain (+) or loss (−) [1] | Weight gain and food intake vs vehicle [2] | Toxic effects [3] | also measured
1 | D I L Q Q L D V S P E C (DILQQLDVSPEC; not fully specified (N-terminus)) [LEP(156–167)] | 40.3 ± 0.6 gm/mouse | +22.6% | +5.7 g | continued to consume food and gain weight at a rate comparable to vehicle-injected control mice | – | –
2 | Q K P E S L D G V L E A S L Y (QKPESLDGVLEASLY; not fully specified (N-terminus)) [LEP(126–140)] | 34.7 ± 1.3^b gm/mouse | −10.2% | −6.0^a g | significantly (P<0.01) restricted weight gain and food intake | – | Reduction of food intake [1]: 14.3%; Weight loss [1]: 10.2%; Food intake vs vehicle [1]: significantly (P=0.01) less than vehicle-injected control mice
3 | D L L H L L A F S K S C S L P (DLLHLLAFSKSCSLP) [LEP(106–120)] | 34.5 ± 1.1^b gm/mouse | −12.0% | −6.1^a g | significantly (P<0.01) restricted weight gain and food intake | – | Reduction of food intake [1]: 14.8%; Weight loss [1]: 12.0%; Food intake vs vehicle [1]: significantly (P=0.01) less than vehicle-injected control mice
4 | SCHLPWA-NH2 [hOB3, S C H L P W A] | – | – | – | – | no apparent toxic effects | –
5 | CC(C)C[C@@H](NC(=O)[C@H](CO)NC(=O)[C@H](CS)NC(=O)[C@@H](N)CO)C(=O)N1CCC[C@H]1C(=O)N[C@@H](CCC(N)=O)C(=O)N[C@H](C(N)=O)[C@@H](C)O [[D-Leu-4]-OB3, Ser-Cys-Ser-[D-Leu]-Pro-Gln-Thr] (H-SCS[dL]PQT-NH2) | – | – | – | – | no apparent toxic effects | –
6 | E A S L Y S T E V V A L S R L (EASLYSTEVVALSRL; not fully specified (N-terminus)) [LEP(136–150)] | 38.7 ± 1.6 gm/mouse | +25.6% | +5.4 g | continued to consume food and gain weight at a rate comparable to vehicle-injected control mice | – | –
7 | SCSLPQT-NH2 [OB3, Ser-Cys-Ser-Leu-Pro-Gln-Thr] | – | – | – | – | no apparent toxic effects | –
8 | B1 | – | – | – | – | – | Competition of bound AP-OB [4]: efficiently competed; Increase in SEAP activity [5]: 11 fold
